Experimental data from the supplement of paper PMC4862054.
Several values for one entry are separate records, joined by “and”; a condition that tells them apart may be missing. Equal entries are not always repeated.

Legend:
Experiment in all cases: normalised viability (% of control), CellTiter-Blue; higher = more viable cells (about 100 = DMSO control)
Conditions in all cases: incubation time: 72 h
[1] = tested on: MDA-MB-453
Experimental: (§1)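 DSRT, CellTiter-Blue viability, 72 h incubation. Signal is normalised to DMSO and benzethonium chloride controls. Value is the normalised response at dose 7.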

[2] = tested on: DU-4475
Experimental: as §1

[3] = tested on: CAL-148
Experimental: as §1

[4] = tested on: HDQ-P1
Experimental: as §1

[5] = tested on: CAL-85-1
Experimental: as §1

[6] = tested on: CAL-51
Experimental: as §1

[7] = tested on: MDA-MB-453; remark: listed apart in the source
Experimental: (§2)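 DSRT, CellTiter-Blue viability, 72 h incubation. Signal is normalised to DMSO and benzethonium chloride controls. Value is the normalised response at dose 8.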

[8] = tested on: DU-4475; remark: listed apart in the source
Experimental: as §2

[9] = tested on: CAL-148; remark: listed apart in the source
Experimental: as §2

[10] = tested on: HDQ-P1; remark: listed apart in the source
Experimental: as §2

[11] = tested on: CAL-85-1; remark: listed apart in the source
Experimental: as §2

[12] = tested on: CAL-51; remark: listed apart in the source
Experimental: as §2

[13] = tested on: MDA-MB-453; remark: listed apart in the source
Experimental: (§3)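 DSRT, CellTiter-Blue viability, 72 h incubation. Signal is normalised to DMSO and benzethonium chloride controls. Value is the normalised response at dose 6.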

[14] = tested on: DU-4475; remark: listed apart in the source
Experimental: as §3

[15] = tested on: CAL-148; remark: listed apart in the source
Experimental: as §3

[16] = tested on: HDQ-P1; remark: listed apart in the source
Experimental: as §3

[17] = tested on: CAL-85-1; remark: listed apart in the source
Experimental: as §3

[18] = tested on: CAL-51; remark: listed apart in the source
Experimental: as §3

SMILES	normalised viability [7]	normalised viability [8]	normalised viability [9]	normalised viability [10]	normalised viability [11]	normalised viability [12]	normalised viability [13]	normalised viability [14]	normalised viability [15]	normalised viability [16]	normalised viability [17]	normalised viability [18]	also measured
CC(=O)c1c(C)c2cnc(Nc3ccc(N4CCNCC4)cn3)nc2n(C2CCCC2)c1=O (1000 nM)													normalised viability [1]: 66.2%; normalised viability [2]: 94.6%; normalised viability [3]: 107%; normalised viability [4]: 99.5%; normalised viability [5]: 98.9%; normalised viability [6]: 72.8%
CC(=O)c1c(C)c2cnc(Nc3ccc(N4CCNCC4)cn3)nc2n(C2CCCC2)c1=O (3000 nM)	63.6%	102%	103%	120%	102%	69.6%							
Cn1cc(C2=Nc3cc(NC(=O)C(N)C4CCCCC4)cc4c3C2=CNNC4=O)cn1 (stereo unspecified) (3000 nM)	25.2%	62.3%	21.9%	51.6%	50.7%	80.6%							
COc1cc2c(cc1O)CC[C@@H]1[C@@H]2CC[C@]2(C)[C@@H](O)CC[C@@H]12 [2-methoxyestradiol] (3000 nM)	34.4%	36.1%	29.6%	56.7%	41.2%	42.2%							
Cc1sc2c(c1C)C(c1ccc(Cl)cc1)=N[C@@H](CC(=O)OC(C)(C)C)c1nnc(C)n1-2 [(+)JQ1] (3000 nM)	23.3%	0.9%	36.9%	94.8%	40.5%	74.3%							
Oc1ncnc2[nH]ncc12 [Allopurinol] (3000 nM)	108%	113%	108%	94.6%	103%	104%							
O=C1CN2Cc3c(ccc(Cl)c3Cl)N=C2N1 [Anagrelide] (3000 nM)	112%	97.8%	94.8%	85.4%	84.8%	78.4%							
Nc1ncn([C@@H]2O[C@H](CO)[C@@H](O)[C@H]2O)c(=O)n1 [Azacitidine] (3000 nM)	101%	99.7%	89.5%	105%	93.8%	109%							
O=NN(CCCl)C(=O)NCCCl [Carmustine] (300 nM)							110%	77.4%	101%	79.4%	94.2%	108%	
O=NN(CCCl)C(=O)NCCCl [Carmustine] (3000 nM)	118%	90.5%	102%	108%	95.7%	102%							
CC1=C2C[C@H]3[C@@H](CC=C4C[C@@H](O)CC[C@@]43C)[C@@H]2CC[C@]12O[C@@H]1C[C@H](C)CN[C@H]1[C@H]2C [Cyclopamine] (300 nM)							113%	105%	115%	79.2%	106%	115%	
CC1=C2C[C@H]3[C@@H](CC=C4C[C@@H](O)CC[C@@]43C)[C@@H]2CC[C@]12O[C@@H]1C[C@H](C)CN[C@H]1[C@H]2C [Cyclopamine] (3000 nM)	105%	122%	111%	105%	99.7%	109%							
CC(=O)O[C@@]12CO[C@@H]1C[C@H](O)[C@@]1(C)C(=O)[C@H](O)C3=C(C)[C@@H](OC(=O)[C@H](O)[C@@H](NC(=O)OC(C)(C)C)c4ccccc4)C[C@@](O)([C@@H](OC(=O)c4ccccc4)[C@H]21)C3(C)C [Docetaxel] (30 nM)							27.2% and 26.1%	19.6% and 16.1%	18.9% and 14.9%	23.5% and 31.8%	30.6% and 27.1%	25.8% and 20.6%	
CC(=O)O[C@@]12CO[C@@H]1C[C@H](O)[C@@]1(C)C(=O)[C@H](O)C3=C(C)[C@@H](OC(=O)[C@H](O)[C@@H](NC(=O)OC(C)(C)C)c4ccccc4)C[C@@](O)([C@@H](OC(=O)c4ccccc4)[C@H]21)C3(C)C [Docetaxel] (300 nM)	24.4% and 23.9%	12.4% and 8.14%	22.2% and 19.1%	37.9% and 31.2%	30.9% and 28.7%	17.9% and 12%							
C[C@]12CC[C@@H]3c4ccc(OC(=O)N(CCCl)CCCl)cc4CC[C@H]3[C@@H]1CC[C@@H]2O [Estramustine] (29.7 nM)							97.2%	71.4%	116%	95.3%	97.2%	79.1%	
C[C@]12CC[C@@H]3c4ccc(OC(=O)N(CCCl)CCCl)cc4CC[C@H]3[C@@H]1CC[C@@H]2O [Estramustine] (99 nM)													normalised viability [1]: 99.7%; normalised viability [2]: 106%; normalised viability [3]: 119%; normalised viability [4]: 97.1%; normalised viability [5]: 102%; normalised viability [6]: 85.8%
C[C@]12CC[C@@H]3c4ccc(OC(=O)N(CCCl)CCCl)cc4CC[C@H]3[C@@H]1CC[C@@H]2O [Estramustine] (297 nM)	101%	118%	97.5%	93.6%	86.5%	92.5%							
CC1(C)CNc2cc(NC(=O)c3cccnc3NCc3ccncc3)ccc21 [Motesanib] (300 nM)							86.5%	95.9%	98.8%	62.8%	78.1%	103%	

SMILES	normalised viability [7]	normalised viability [8]	normalised viability [9]	normalised viability [10]	normalised viability [11]	normalised viability [12]	normalised viability [13]	normalised viability [14]	normalised viability [15]	normalised viability [16]	normalised viability [17]	normalised viability [18]	also measured
CC1(C)CNc2cc(NC(=O)c3cccnc3NCc3ccncc3)ccc21 [Motesanib] (3000 nM)	80.8%	101%	86.7%	72.7%	86.3%	104%							
C[C@]1(O)C[C@@H](c2nc(-c3ccc4ccc(-c5ccccc5)nc4c3)c3c(N)nccn32)C1 [OSI-906] (300 nM)							87%	91.5%	89.2%	49.8%	87.2%	91.5%	
C[C@]1(O)C[C@@H](c2nc(-c3ccc4ccc(-c5ccccc5)nc4c3)c3c(N)nccn32)C1 [OSI-906] (1000 nM)													normalised viability [1]: 93.7%; normalised viability [2]: 77.3%; normalised viability [3]: 95%; normalised viability [4]: 55.5%; normalised viability [5]: 91.9%; normalised viability [6]: 86.9%
C[C@]1(O)C[C@@H](c2nc(-c3ccc4ccc(-c5ccccc5)nc4c3)c3c(N)nccn32)C1 [OSI-906] (3000 nM)	73.9%	106%	95.6%	50.5%	85.5%	88.3%							
CC[C@@H]1C(=O)OC[C@@H]1Cc1cncn1C [Pilocarpine] (1200 nM)							105%	88.2%	101%	113%	100%	97.6%	
CC[C@@H]1C(=O)OC[C@@H]1Cc1cncn1C [Pilocarpine] (12000 nM)	117%	88%	105%	127%	92.5%	107%							
COc1cc(F)c(F)c(Nc2ccc(I)cc2F)c1NS(=O)(=O)C1(C[C@H](O)CO)CC1 [RDEA119] (300 nM)							80.8%	1.76%	82.6%	58.7%	72.8%	74.9%	
COc1cc(F)c(F)c(Nc2ccc(I)cc2F)c1NS(=O)(=O)C1(C[C@H](O)CO)CC1 [RDEA119] (1000 nM)													normalised viability [1]: 67%; normalised viability [2]: 0.64%; normalised viability [3]: 87.7%; normalised viability [4]: 40.8%; normalised viability [5]: 54.1%; normalised viability [6]: 79.3%
COc1cc(F)c(F)c(Nc2ccc(I)cc2F)c1NS(=O)(=O)C1(C[C@H](O)CO)CC1 [RDEA119] (3000 nM)	54.9%	1.46%	75.7%	36.1%	33.4%	69.9%							
CC(C)(C)c1cnc(CSc2cnc(NC(=O)C3CCNCC3)s2)o1 [SNS-032] (300 nM)							18.9%	27.9%	7.44%	10.2%	9.41%	74%	
CC(C)(C)c1cnc(CSc2cnc(NC(=O)C3CCNCC3)s2)o1 [SNS-032] (3000 nM)	15.8%	4.8%	18.8%	14.4%	3.68%	8.52%							
Cn1cnc2c(F)c(Nc3ccc(Br)cc3Cl)c(C(=O)NOCCO)cc21 [Selumetinib] (300 nM)							121%	7.86%	89.6%	41.9%	83.4%	95.1%	
Cn1cnc2c(F)c(Nc3ccc(Br)cc3Cl)c(C(=O)NOCCO)cc21 [Selumetinib] (3000 nM)	108%	0.16%	91.9%	76.5%	59.3%	86.9%							
Nc1nc2[nH]cnc2c(=S)[nH]1 [Thioguanine] (300 nM)							107%	100%	99%	75.6%	93.3%	102%	
Nc1nc2[nH]cnc2c(=S)[nH]1 [Thioguanine] (3000 nM)	110%	115%	78.4%	86.4%	75.7%	103%							
O=P(O)(O)C(O)(Cn1ccnc1)P(=O)(O)O [Zoledronic acid] (300 nM)							93.7%	115%	93.6%	68.9%	98.4%	104%	
O=P(O)(O)C(O)(Cn1ccnc1)P(=O)(O)O [Zoledronic acid] (1000 nM)													normalised viability [1]: 86.8%; normalised viability [2]: 120%; normalised viability [3]: 92.5%; normalised viability [4]: 95.7%; normalised viability [5]: 88.4%; normalised viability [6]: 101%
O=P(O)(O)C(O)(Cn1ccnc1)P(=O)(O)O [Zoledronic acid] (3000 nM)	111%	121%	90.1%	89.4%	96.8%	113%							
